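How tested: cells in 96-well plates exposed to compound for 48 hours at five concentrations. GI50 marks 50% less growth. TGI marks complete inhibition of growth.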
How the values were obtained:
Test in all cases: NCI anticancer screen, dose series, 48 h
HOP-62 NSCLC = tested on: HOP-62 NSCLC
SNB-75 CNS = tested on: SNB-75 CNS
HCT-15 colon = tested on: HCT-15 colon
LOX IMVI melanoma = tested on: LOX IMVI melanoma
HT29 colon = tested on: HT29 colon
TK-10 renal = tested on: TK-10 renal
COLO 205 colon = tested on: COLO 205 colon
UACC-257 melanoma = tested on: UACC-257 melanoma
EKVX NSCLC = tested on: EKVX NSCLC
HL-60(TB) leukemia = tested on: HL-60(TB) leukemia
SK-MEL-2 melanoma = tested on: SK-MEL-2 melanoma
MDA-MB-435 = tested on: MDA-MB-435
RXF 393 renal = tested on: RXF 393 renal
U251 CNS = tested on: U251 CNS
ACHN renal = tested on: ACHN renal
IGROV1 ovarian = tested on: IGROV1 ovarian
KM12 colon = tested on: KM12 colon
NCI/ADR-RES ovarian = tested on: NCI/ADR-RES ovarian
RPMI-8226 leukemia = tested on: RPMI-8226 leukemia
SW-620 colon = tested on: SW-620 colon
NCI-H522 lung = tested on: NCI-H522 lung
CCRF-CEM leukemia = tested on: CCRF-CEM leukemia
HOP-92 NSCLC = tested on: HOP-92 NSCLC
SK-OV-3 ovarian = tested on: SK-OV-3 ovarian
MOLT-4 leukemia = tested on: MOLT-4 leukemia
BT-549 breast = tested on: BT-549 breast
SF-295 CNS = tested on: SF-295 CNS
CAKI-1 renal = tested on: CAKI-1 renal
NCI-H23 lung = tested on: NCI-H23 lung
HCC-2998 colon = tested on: HCC-2998 colon
T-47D breast = tested on: T-47D breast
OVCAR-3 ovarian = tested on: OVCAR-3 ovarian
NCI-H460 lung = tested on: NCI-H460 lung
786-0 renal = tested on: 786-0 renal
DU-145 prostate = tested on: DU-145 prostate
SF-539 CNS = tested on: SF-539 CNS
SK-MEL-28 melanoma = tested on: SK-MEL-28 melanoma
SF-268 CNS = tested on: SF-268 CNS
K-562 leukemia = tested on: K-562 leukemia
SK-MEL-5 melanoma = tested on: SK-MEL-5 melanoma
HCT-116 colon = tested on: HCT-116 colon
MALME-3M melanoma = tested on: MALME-3M melanoma
OVCAR-4 ovarian = tested on: OVCAR-4 ovarian
HS 578T breast = tested on: HS 578T breast
MCF7 breast = tested on: MCF7 breast
UO-31 renal = tested on: UO-31 renal
PC-3 prostate = tested on: PC-3 prostate
OVCAR-5 ovarian = tested on: OVCAR-5 ovarian
OVCAR-8 ovarian = tested on: OVCAR-8 ovarian
SNB-19 CNS = tested on: SNB-19 CNS
A549 NSCLC = tested on: A549 NSCLC

Structure (SMILES): N#Cc1c(-c2ccccc2)n([O-])c2ccccc2[n+]1=O
- GI50 (HOP-62 NSCLC): 20.2 µM
- TGI (HOP-62 NSCLC): 38.7 µM
- GI50 (SNB-75 CNS): 41.1 µM
- TGI (SNB-75 CNS): > 100 µM
- GI50 (HCT-15 colon): 21.4 µM
- TGI (HCT-15 colon): 48.3 µM
- GI50 (LOX IMVI melanoma): 18.7 µM
- TGI (LOX IMVI melanoma): 35.1 µM
- GI50 (HT29 colon): 38.8 µM
- TGI (HT29 colon): > 100 µM
- GI50 (TK-10 renal): 29.4 µM
- TGI (TK-10 renal): 68.4 µM
- GI50 (COLO 205 colon): 35.5 µM
- TGI (COLO 205 colon): > 100 µM
- GI50 (UACC-257 melanoma): 21.4 µM
- TGI (UACC-257 melanoma): 40.1 µM
- GI50 (EKVX NSCLC): 28.2 µM
- TGI (EKVX NSCLC): 58 µM
- GI50 (HL-60(TB) leukemia): 25.2 µM
- TGI (HL-60(TB) leukemia): 47.9 µM
- GI50 (SK-MEL-2 melanoma): 62.6 µM
- TGI (SK-MEL-2 melanoma): > 100 µM
- GI50 (MDA-MB-435): 19.7 µM
- TGI (MDA-MB-435): 36.3 µM
- GI50 (RXF 393 renal): 42.8 µM
- TGI (RXF 393 renal): > 100 µM
- GI50 (U251 CNS): 24.7 µM
- TGI (U251 CNS): 60.7 µM
- GI50 (ACHN renal): 19.9 µM
- TGI (ACHN renal): 37.5 µM
- GI50 (IGROV1 ovarian): 36.9 µM
- TGI (IGROV1 ovarian): > 100 µM
- GI50 (KM12 colon): 16.2 µM
- TGI (KM12 colon): 32.2 µM
- GI50 (NCI/ADR-RES ovarian): 21.1 µM
- TGI (NCI/ADR-RES ovarian): 44.8 µM
- GI50 (RPMI-8226 leukemia): 21.1 µM
- TGI (RPMI-8226 leukemia): 42.2 µM
- GI50 (SW-620 colon): 35.3 µM
- TGI (SW-620 colon): > 100 µM
- GI50 (NCI-H522 lung): 26.9 µM
- TGI (NCI-H522 lung): 75.1 µM
- GI50 (CCRF-CEM leukemia): 22.2 µM
- TGI (CCRF-CEM leukemia): 46.1 µM
- GI50 (HOP-92 NSCLC): 21.8 µM
- TGI (HOP-92 NSCLC): 45.4 µM
- GI50 (SK-OV-3 ovarian): 51.7 µM
- TGI (SK-OV-3 ovarian): > 100 µM
- GI50 (MOLT-4 leukemia): 10.2 µM
- TGI (MOLT-4 leukemia): 27.2 µM
- GI50 (BT-549 breast): 25.1 µM
- TGI (BT-549 breast): 57.3 µM
- GI50 (SF-295 CNS): 24.4 µM
- TGI (SF-295 CNS): 56.4 µM
- GI50 (CAKI-1 renal): 20.1 µM
- TGI (CAKI-1 renal): 34.7 µM
- GI50 (NCI-H23 lung): 20.3 µM
- TGI (NCI-H23 lung): 40.3 µM
- GI50 (HCC-2998 colon): 17 µM
- TGI (HCC-2998 colon): 34 µM
- GI50 (T-47D breast): 30.1 µM
- TGI (T-47D breast): 83.7 µM
- GI50 (OVCAR-3 ovarian): 22.3 µM
- TGI (OVCAR-3 ovarian): 42.9 µM
- GI50 (NCI-H460 lung): 20.7 µM
- TGI (NCI-H460 lung): 45.9 µM
- GI50 (786-0 renal): 35.7 µM
- TGI (786-0 renal): > 100 µM
- GI50 (DU-145 prostate): 22.4 µM
- TGI (DU-145 prostate): 51.2 µM
- GI50 (SF-539 CNS): 32.1 µM
- TGI (SF-539 CNS): 60.8 µM
- GI50 (SK-MEL-28 melanoma): 65.7 µM
- TGI (SK-MEL-28 melanoma): > 100 µM
- GI50 (SF-268 CNS): 24.8 µM
- TGI (SF-268 CNS): 63.9 µM
- GI50 (K-562 leukemia): 20.6 µM
- TGI (K-562 leukemia): 37.1 µM
- GI50 (SK-MEL-5 melanoma): 20.1 µM
- TGI (SK-MEL-5 melanoma): 38.5 µM
- GI50 (HCT-116 colon): 19.5 µM
- TGI (HCT-116 colon): 34.8 µM
- GI50 (MALME-3M melanoma): 21.3 µM
- TGI (MALME-3M melanoma): 37.1 µM
- GI50 (OVCAR-4 ovarian): 28.8 µM
- TGI (OVCAR-4 ovarian): 81.8 µM
- GI50 (HS 578T breast): 26.8 µM
- TGI (HS 578T breast): 70 µM
- GI50 (MCF7 breast): 33.2 µM
- TGI (MCF7 breast): > 100 µM
- GI50 (UO-31 renal): 33.9 µM
- TGI (UO-31 renal): > 100 µM
- GI50 (PC-3 prostate): 26.4 µM
- TGI (PC-3 prostate): 79.8 µM
- GI50 (OVCAR-5 ovarian): 28.1 µM
- TGI (OVCAR-5 ovarian): 74.2 µM
- GI50 (OVCAR-8 ovarian): 32.5 µM
- TGI (OVCAR-8 ovarian): 91.3 µM
- GI50 (SNB-19 CNS): 67.1 µM
- TGI (SNB-19 CNS): > 100 µM
- GI50 (A549 NSCLC): 22 µM
- TGI (A549 NSCLC): 50.9 µM

Source: PubChem BioAssay (NCI)
